Values joined by “and” are separate entries in the source; they are usually repeats but may differ in a detail not shown here. Identical values can stand only once. Like-named read-outs stand apart in the source and are kept apart here.
Experiments:
[1] = system: bone-marrow-derived macrophages (BMDM); experiment: Alamar blue-based assay, macrophage toxicity; assay type: cell-based, BALB/c mice; conditions: for BMDM TC50: toxicity against bone marrow derived macrophages; for Alamar Blue Assay nAUC: toxicity against bone-marrow-derived macrophages, normalized area under the curve
Protocol: . Due to the steep slope of the toxicity profile and the correspondingly low accuracy of the CC50 values, the normalized area under the curve (nAUC) was used as the toxicity parameter (Figure 6A). […].
Macrophages (BMDM) were differentiated from the bone marrow of 6–8 week old female BALB/c mice, as described previously,[37] and maintained at 37 °C and 5% CO2 in DMEM (GIBCO) supplemented with 4 mM L-glutamine (GIBCO) and 4% L929-cell-conditioned medium. BMDMs were seeded at 4.2 × 10^4 cells per well in 96-well plates and adhered for at least 4 h. Subsequently, inhibitor concentrations were added for 72 h, followed by the addition of a 1/10 volume Alamar blue (Trek Diagnostics). Fluorescence was measured after 6 h as described above.

[2] = system: intracellular amastigotes; parameters: method as in PMID 30380837; conditions: cited from earlier work
HsNMTs = system: HsNMTs; parameters: method as in PMID 30380837; conditions: versus Leishmania major (Lm) NMT; cited from earlier work
LdNMT = LdNMT (Leishmania donovani, UniProt D0AB09); experiment: biochemical; conditions: 95% confidence interval in brackets
LmNMT = molecular target: T1, LmNMT (Leishmania major, UniProt Q4Q5S8); experiment: CPM assay (fluorogenic NMT activity assay), LmNMT; assay type: biochemical; conditions: 95% confidence interval in brackets; read-out: CPM Assay, IC50 (CI95) LmNMT
T1 sequence (Q4Q5S8 1-421): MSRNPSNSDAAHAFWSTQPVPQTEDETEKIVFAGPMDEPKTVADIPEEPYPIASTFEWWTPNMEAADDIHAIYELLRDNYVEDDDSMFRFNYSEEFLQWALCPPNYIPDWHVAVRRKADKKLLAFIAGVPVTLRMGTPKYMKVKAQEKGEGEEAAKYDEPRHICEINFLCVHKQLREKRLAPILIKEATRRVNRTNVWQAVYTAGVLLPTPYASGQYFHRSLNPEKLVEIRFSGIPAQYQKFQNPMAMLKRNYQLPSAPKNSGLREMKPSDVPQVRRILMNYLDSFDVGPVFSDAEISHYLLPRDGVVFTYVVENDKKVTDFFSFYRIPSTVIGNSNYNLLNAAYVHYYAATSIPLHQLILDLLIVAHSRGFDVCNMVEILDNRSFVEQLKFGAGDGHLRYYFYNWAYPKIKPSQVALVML

[3] = system: NMT (protein myristoylation) in L. donovani amastigotes; assay type: cell-based; conditions: in-gel fluorescence, varying inhibitor concentrations
L. donovani amastigotes = experiment: Alamar blue-based assay, L. donovani amastigotes; assay type: cell-based; conditions: Leishmania donovani

LdNMT, sequence (D0AB09 entry or part of it): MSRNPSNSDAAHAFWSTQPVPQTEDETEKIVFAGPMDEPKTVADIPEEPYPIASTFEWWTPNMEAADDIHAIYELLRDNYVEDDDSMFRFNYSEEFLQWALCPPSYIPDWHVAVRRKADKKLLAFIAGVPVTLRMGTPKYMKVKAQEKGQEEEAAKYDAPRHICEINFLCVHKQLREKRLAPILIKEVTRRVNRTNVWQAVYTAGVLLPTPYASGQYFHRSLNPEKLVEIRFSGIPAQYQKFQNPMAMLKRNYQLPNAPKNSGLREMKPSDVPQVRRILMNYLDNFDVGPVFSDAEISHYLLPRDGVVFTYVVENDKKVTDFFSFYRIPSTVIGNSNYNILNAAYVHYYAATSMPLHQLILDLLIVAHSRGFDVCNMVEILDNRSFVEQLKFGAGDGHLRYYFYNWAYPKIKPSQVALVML

SMILES	BMDM TC50 [1]	Alamar Blue Assay nAUC [1]	further results
CN1CCC(N(C)c2nc(N(C)CCC#N)c3sc(C(C)(C)C)cc3n2)C1 (stereo not shown) [Compound 52, 3-((6-(tert-Butyl)-2-(methyl(1-methylpyrrolidin-3-yl)amino)thieno[3,2-d]pyrimidin-4-yl)(methyl)amino)propanenitrile]	>40 µM		
Cc1nn(C)c(C)c1N(C(F)F)S(=O)(=O)c1c(Cl)cc(CCCC2CCN(C)CC2)cc1Cl [DDD100097]			EC50 [2]: 2.4 µM; selectivity over HsNMTs (HsNMTs): 10 fold
CN(CCC#N)c1nc(N(C)C2CCNCC2)nc2ccsc12 [Compound 10, 3-(Methyl(2-(methyl(piperidin-4-yl)amino)thieno[3,2-d]pyrimidin-4-yl)amino)propanenitrile]	>50 µM	1.05	
CN(C)CCCN(C)c1nc(N(C)CCC#N)c2sccc2n1 [Compound 2, 3-((2-((3-(Dimethylamino)propyl)(methyl)amino)thieno[3,2-d]pyrimidin-4-yl)(methyl)amino)propanenitrile]			IC50 (LdNMT; read-out: CPM Assay, IC50 (CI95) LdNMT): 0.59 µM
CN(C)CCCN(C)c1nc(N2CCC[C@H]2CO)c2sccc2n1 [Compound 39, (S)-(1-(2-((3-(Dimethylamino)propyl)(methyl)amino)thieno[3,2-d]pyrimidin-4-yl)pyrrolidin-2-yl)methanol]	>50 µM	1.14	
CCN(C)c1nc(N(C)C2CCN(C)CC2)nc2ccsc12 [Compound 46, N^4-Ethyl-N^2,N^4-dimethyl-N^2-(1-methylpiperidin-4-yl)thieno[3,2-d]pyrimidine-2,4-diamine]	>50 µM	1.05	
CN(CCC#N)c1nc(N(C)C2CCNC2)nc2cc(C(C)(C)C)sc12 (stereo not shown) [Compound 53, 3-((6-(tert-Butyl)-2-(methyl(pyrrolidin-3-yl)amino)thieno[3,2-d]pyrimidin-4-yl)(methyl)amino)propanenitrile]	>40 µM		
CN1CCC(N(CCCO)c2nc(N(C)CCC#N)c3ccccc3n2)CC1 [Compound 30, 3-((2-((3-Hydroxypropyl)(1-methylpiperidin-4-yl)amino)quinazolin-4-yl)(methyl)amino)propanenitrile]			IC50 (LmNMT): 19 µM and 18.8 µM
CN1CCC(N(C)c2nc(N(C)CCC#N)c3sccc3n2)CC1 [Compound 1, 3-(Methyl(2-(methyl(1-methylpiperidin-4-yl)amino)thieno[3,2-d]pyrimidin-4-yl)amino)propanenitrile]	>100 µM	1.07	effect on myristoylation [3]: significantly decreased myristoylation in a dose-dependent manner
CCN(C)c1nc(N(C)C2CCNCC2)nc2ccc(S(=O)(=O)Nc3c(C)nn(C)c3C)cc12 [Compound 65, 4-(Ethyl(methyl)amino)-2-(methyl(piperidin-4-yl)amino)-N-(1,3,5-trimethyl-1H-pyrazol-4-yl)quinazoline-6-sulfonamide]			IC50 (LdNMT; CPM Assay, IC50 (CI95) LdNMT): 0.33 µM
CN(C)CCCN(C)c1nc(N(C)CCC(N)=O)c2sccc2n1 [Compound 36]	>50 µM		
CN1CCC(N(C)c2nc(N3CCC[C@H]3CC#N)c3sccc3n2)CC1 [Compound 43, (S)-2-(1-(2-(Methyl(1-methylpiperidin-4-yl)amino)thieno[3,2-d]pyrimidin-4-yl)pyrrolidin-2-yl)acetonitrile]	>50 µM	1.08	
CN(C)CCCN(C)c1nc(N(C)CCCO)c2sccc2n1 [Compound 35, 3-((2-((3-(Dimethylamino)propyl)(methyl)amino)thieno[3,2-d]pyrimidin-4-yl)(methyl)amino)propan-1-ol]	>50 µM		
CN(CCC#N)c1nc(N(CCCO)C2CCNCC2)nc2ccccc12 [Compound 29, 3-((2-((3-Hydroxypropyl)(piperidin-4-yl)amino)quinazolin-4-yl)(methyl)amino)propanenitrile]			IC50 (LmNMT): 15 µM and 15.3 µM
CCN1CCC(N(C)c2nc(N(C)CCC#N)c3ccccc3n2)CC1 [Compound 24, 3-((2-((1-Ethylpiperidin-4-yl)(methyl)amino)quinazolin-4-yl)(methyl)amino)propanenitrile]	>50 µM		
CN1CCC(N(C)c2nc(N(C)CCC#N)c3sc(C(C)(C)C)cc3n2)CC1 [Compound 50, 3-((6-(tert-Butyl)-2-(methyl(1-methylpiperidin-4-yl)amino)thieno[3,2-d]pyrimidin-4-yl)(methyl)amino)propanenitrile]			EC50 (L. donovani amastigotes; extracellular L. donovani amastigotes (Table S2), read-out: Ld Amastigotes EC50 (CI05)): 10.1 µM; EC50 (L. donovani amastigotes; intracellular L. donovani amastigotes, read-out: Alamar Blue Assay EC50 (CI95)): 10 µM
CN(CCC#N)c1nc(N(C)C2CCNCC2)nc2ccccc12 [Compound 23, 3-(Methyl(2-(methyl(piperidin-4-yl)amino)quinazolin-4-yl)amino)propanenitrile]	>50 µM		
COC[C@@H]1CCCN1c1nc(N(C)C2CCN(C)CC2)nc2ccsc12 [Compound 40, (S)-4-(2-(Methoxymethyl)pyrrolidin-1-yl)-N-methyl-N-(1-methylpiperidin-4-yl)thieno[3,2-d]pyrimidin-2-amine]	>40 µM	1.06	
CCN1CCC(N(C)c2nc(N(C)CCC#N)c3sccc3n2)CC1 [Compound 12, 3-(Methyl(2-(methyl(1-ethylpiperidin-4-yl)amino)thieno[3,2-d]pyrimidin-4-yl)amino)propanenitrile]	>50 µM	1.05	
CCN(C)c1nc(N(C)C2CCNCC2)nc2ccsc12 [Compound 47, N^4-Ethyl-N^2,N^4-dimethyl-N^2-(piperidin-4-yl)thieno[3,2-d]pyrimidine-2,4-diamine]	>50 µM		
CN1CCC(N(C)c2nc(N(C)CCC#N)c3ccccc3n2)CC1 [Compound 3, 3-(Methyl(2-(methyl(1-methylpiperidin-4-yl)amino)quinazolin-4-yl)amino)propanenitrile]	>100 µM	1.04	
CN1CCC(N(C)c2nc(N(C)CCC#N)c3ccccc3n2)C1 (stereo not shown) [Compound 26, 3-(Methyl(2-(methyl(1-methylpyrrolidin-3-yl)amino)quinazolin-4-yl)amino)propanenitrile]	>50 µM	1.03	effect on myristoylation [3]: significantly decreased myristoylation in a dose-dependent manner
CN(C)CCCN(C)c1nc(N(C)CCC#N)c2cc(Br)ccc2n1 [Compound 56, 3-((6-Bromo-2-((3-(dimethylamino)propyl)(methyl)amino)quinazolin-4-yl)(methyl)amino)propanenitrile]	>40 µM	1.3 and 1.28	
CN(C)CCCN(C)c1nc(N(C)CCC#N)c2ccccc2n1 [Compound 4, 3-((2-((3-(Dimethylamino)propyl)(methyl)amino)quinazolin-4-yl)(methyl)amino)propanenitrile]	>100 µM	1.17	
CN(C)CCCN(C)c1nc(N(C)CCC#N)c2sc(C(C)(C)C)cc2n1 [Compound 51, 3-((6-(tert-Butyl)-2-((3-(dimethylamino)propyl)(methyl)amino)thieno[3,2-d]pyrimidin-4-yl)(methyl)amino)propanenitrile]	27.3 (24.1-31.0) μM		
